Measured values: patent US20240025906A1 (NEURON23, INC., priority 2022, published 2024)

How the values were obtained:
[1] = test system: JAK1/TYK2 pSTAT5 (Tyr694/699) in THP-1 cell line; assay: IFNa-stimulated JAK1/TYK2 pSTAT5 (Tyr694/699) inhibition cellular assay, AlphaLISA; assay type: cell-based; conditions: Homo sapiens; THP-1 cells, IFNa-stimulated, AlphaLISA (Assay B); read-out: Cellular_THP1_IFNa-pSTATS_TYK2
Summary of the method: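 Compound dilutions were dispensed first, and HBSS-suspended THP-1 cells were added on top (final top concentration 10000 nM, 6-fold series). After 1 h at 37 °C, IFNa (100 ng/mL as added) was applied for 30 min. Cells were then lysed and pSTAT5 was quantified by AlphaLISA.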

TYK2 JH2 = molecular target: T1, TYK2 JH2 (Homo sapiens, UniProt P29597); assay: TYK2 JH2 binding assay (KINOMEscan KdELECT competitive binding); conditions: TYK2 JH2 domain, DiscoverX KINOMEscan KdELECT (Assay A); read-out: Biochemical TYK2_DiscoverX_JH2_BND_Kd
T1 construct: purchased DiscoverX (KINOMEscan KdELECT service); host or cells: E. coli BL21-derived (T7 phage display) or HEK-293
Summary of the method: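 Test compounds were titrated in 11 three-fold steps against JH2 fragment captured on ligand-loaded magnetic beads, with 1 h incubation at room temperature and DMSO at 0.9%. Eluted kinase was quantified by qPCR, and Kd was fitted from the dose series.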

T1 sequence (P29597 589-875 limits assumed): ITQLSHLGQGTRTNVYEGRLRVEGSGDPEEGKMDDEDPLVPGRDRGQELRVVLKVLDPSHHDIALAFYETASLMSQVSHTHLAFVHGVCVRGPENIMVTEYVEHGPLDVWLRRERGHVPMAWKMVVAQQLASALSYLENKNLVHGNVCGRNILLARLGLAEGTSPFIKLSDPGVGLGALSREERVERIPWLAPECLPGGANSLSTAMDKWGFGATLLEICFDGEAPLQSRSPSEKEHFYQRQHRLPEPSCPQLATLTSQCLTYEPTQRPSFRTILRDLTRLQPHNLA

Row | Structure (SMILES) | IC50 [1] [nM] | Kd (TYK2 JH2) [nM]
1 | CNc1ncc(-c2nc3cc(O[C@H]4C[C@@H](COC)C4)ccc3o2)c2cc(NC(=O)C3CC3)ncc12 [Example 347, N-(5-(5-((1s,3s)-3-(methoxymethyl)cyclobutoxy)benzo[d]oxazol-2-yl)-8-(methylamino)-2,7-naphthyridin-3-yl)cyclopropanecarboxamide] | ≤ 500 | ≤ 100
2 | CNc1ncc(-c2nc3cc(O[C@H]4C[C@H](COC)C4)ccc3o2)c2cc(NC(=O)C3CC3)ncc12 [Example 348, N-(5-(5-((1r,3r)-3-(methoxymethyl)cyclobutoxy)benzo[d]oxazol-2-yl)-8-(methylamino)-2,7-naphthyridin-3-yl)cyclopropanecarboxamide] | ≤ 500 | ≤ 100
3 | CNc1ncc(-c2nc3cc(OCC45CCCN4CCC5)ccc3o2)c2cc(NC(=O)C3CC3)ncc12 [Example 349, N-(8-(methylamino)-5-(5-((tetrahydro-1H-pyrrolizin-7a(5H)-yl)methoxy)benzo[d]oxazol-2-yl)-2,7-naphthyridin-3-yl)cyclopropanecarboxamide] | ≤ 500 | ≤ 100
4 | CNc1ncc(-c2nc3cc(O[C@@H](C)COC)ccc3o2)c2cc(NC(=O)C3CC3)ncc12 [Example 350, (S)—N-(5-(5-((1-methoxypropan-2-yl)oxy)benzo[d]oxazol-2-yl)-8-(methylamino)-2,7-naphthyridin-3-yl)cyclopropanecarboxamide] | ≤ 500 | ≤ 100
5 | CNc1ncc(-c2nc3cc(O[C@H](C)COC)ccc3o2)c2cc(NC(=O)C3CC3)ncc12 [Example 351, (R)—N-(5-(5-((1-methoxypropan-2-yl)oxy)benzo[d]oxazol-2-yl)-8-(methylamino)-2,7-naphthyridin-3-yl)cyclopropanecarboxamide] | ≤ 500 | ≤ 100
6 | CNc1ncc(-c2nc3cc(OCC(C)(C)N4CCOCC4)ccc3o2)c2cc(NC(=O)C3CC3)ncc12 [Example 352, N-(5-(5-(2-methyl-2-morpholinopropoxy)benzo[d]oxazol-2-yl)-8-(methylamino)-2,7-naphthyridin-3-yl)cyclopropanecarboxamide] | ≤ 500 | ≤ 100
7 | CNc1ncc(-c2nc3cc(OCC[S+](C)[O-])ccc3o2)c2cc(NC(=O)C3CC3)ncc12 (stereo not shown) [Example 353, N-(8-(methylamino)-5-(5-(2-(methylsulfinyl)ethoxy)benzo[d]oxazol-2-yl)-2,7-naphthyridin-3-yl)cyclopropanecarboxamide] | ≤ 500 | ≤ 100
8 | CNc1ncc(-c2nc3cc(OCCS(C)(=O)=O)ccc3o2)c2cc(NC(=O)C3CC3)ncc12 [Example 354, N-(8-(methylamino)-5-(5-(2-(methylsulfonyl)ethoxy)benzo[d]oxazol-2-yl)-2,7-naphthyridin-3-yl)cyclopropanecarboxamide] | ≤ 500 | ≤ 100
9 | CNc1ncc(-c2nc3ccc(N4CCOCC4)cc3o2)c2cc(NC(=O)C3CC3)ncc12 [Example 355, N-(8-(methylamino)-5-(6-morpholinobenzo[d]oxazol-2-yl)-2,7-naphthyridin-3-yl)cyclopropanecarboxamide] | ≤ 500 | ≤ 100
10 | CNc1ncc(-c2nc3cnccc3o2)c2cc(NC(=O)C3CC3)ncc12 [Example 356, N-(8-(methylamino)-5-(oxazolo[4,5-c]pyridin-2-yl)-2,7-naphthyridin-3-yl)cyclopropanecarboxamide] | ≤ 500 | ≤ 100
11 | CNc1ncc(-c2nc3ccncc3o2)c2cc(NC(=O)C3CC3)ncc12 [Example 357, N-(8-(methylamino)-5-(oxazolo[5,4-c]pyridin-2-yl)-2,7-naphthyridin-3-yl)cyclopropanecarboxamide] | > 500 | ≤ 100
12 | CNc1ncc(-c2nc3ncccc3o2)c2cc(NC(=O)C3CC3)ncc12 [Example 358, N-(8-(methylamino)-5-(oxazolo[4,5-b]pyridin-2-yl)-2,7-naphthyridin-3-yl)cyclopropanecarboxamide] | ≤ 500 | ≤ 100
13 | CNc1ncc(-c2nc3cc(C4CCNCC4)ccc3o2)c2cc(NC(=O)C3CC3)ncc12 [Example 359, N-(8-(methylamino)-5-(5-(piperidin-4-yl)benzo[d]oxazol-2-yl)-2,7-naphthyridin-3-yl)cyclopropanecarboxamide 2,2,2-trifluoroacetate] | ≤ 500 | ≤ 100
14 | CNc1ncc(-c2nc3cc(C4CCN(C5COC5)CC4)ccc3o2)c2cc(NC(=O)C3CC3)ncc12 [Example 360, N-(8-(methylamino)-5-(5-(1-(oxetan-3-yl)piperidin-4-yl)benzo[d]oxazol-2-yl)-2,7-naphthyridin-3-yl)cyclopropanecarboxamide] | ≤ 500 | ≤ 100
15 | CNc1ncc(-c2nc3cc(C4CCN(C)CC4)ccc3o2)c2cc(NC(=O)C3CC3)ncc12 [Example 361, N-(8-(methylamino)-5-(5-(1-methylpiperidin-4-yl)benzo[d]oxazol-2-yl)-2,7-naphthyridin-3-yl)cyclopropanecarboxamide] | ≤ 500 | ≤ 100
16 | [2H]C([2H])([2H])Nc1ncc(-c2nc3cc(OC)ccc3o2)c2cc(NC(=O)C3CC3)ncc12 [Example 362, N-(5-(5-methoxybenzo[d]oxazol-2-yl)-8-((methyl-d3)amino)-2,7-naphthyridin-3-yl)cyclopropanecarboxamide] | ≤ 500 | ≤ 100
17 | [2H]C([2H])([2H])Nc1ncc(-c2nc3c(OC)cccc3o2)c2cc(NC(=O)C3CC3)ncc12 [Example 363, N-(5-(4-methoxybenzo[d]oxazol-2-yl)-8-((methyl-d3)amino)-2,7-naphthyridin-3-yl)cyclopropanecarboxamide] | ≤ 500 | ≤ 100
18 | [2H]C([2H])([2H])Nc1ncc(-c2nc3cc(N4CCOCC4)ccc3o2)c2cc(NC(=O)C3CC3)ncc12 [Example 364, N-(8-((methyl-d3)amino)-5-(5-morpholinobenzo[d]oxazol-2-yl)-2,7-naphthyridin-3-yl)cyclopropanecarboxamide] | ≤ 500 | ≤ 100
19 | [2H]C([2H])([2H])Nc1ncc(-c2nc3cc(OC([2H])([2H])[2H])ccc3o2)c2cc(NC(=O)C3CC3)ncc12 [Example 365, N-(5-(5-(methoxy-d3)benzo[d]oxazol-2-yl)-8-((methyl-d3)amino)-2,7-naphthyridin-3-yl)cyclopropanecarboxamide] | ≤ 500 | ≤ 100
20 | CCNc1ncc(-c2nc3cc(N4CCO[C@@H](C)C4)ccc3o2)c2cc(NC(=O)C3CC3)ncc12 [Example 366, (S)—N-(8-(ethylamino)-5-(5-(2-methylmorpholino)benzo[d]oxazol-2-yl)-2,7-naphthyridin-3-yl)cyclopropanecarboxamide] | ≤ 500 | ≤ 100
21 | COc1ccc2oc(-c3cnc(NC4CC4)c4cnc(NC(=O)C5CC5)cc34)nc2c1 [Example 367, N-(8-(cyclopropylamino)-5-(5-methoxybenzo[d]oxazol-2-yl)-2,7-naphthyridin-3-yl)cyclopropanecarboxamide] | ≤ 500 | ≤ 100
22 | C[C@H]1CN(c2ccc3oc(-c4cnc(N)c5cnc(NC(=O)C6CC6)cc45)nc3c2)CCO1 [Example 368, (S)—N-(8-amino-5-(5-(2-methylmorpholino)benzo[d]oxazol-2-yl)-2,7-naphthyridin-3-yl)cyclopropanecarboxamide] | ≤ 500 | ≤ 100
23 | COc1ccc2oc(-c3cnc(N)c4cnc(NC(=O)C5CC5)cc34)nc2c1 [Example 369, N-(8-amino-5-(5-methoxybenzo[d]oxazol-2-yl)-2,7-naphthyridin-3-yl)cyclopropanecarboxamide] | ≤ 500 | ≤ 100
24 | COc1ccc2oc(-c3cnc(NCC(F)F)c4cnc(NC(=O)C5CC5)cc34)nc2c1 [Example 370, N-(8-((2,2-difluoroethyl)amino)-5-(5-methoxybenzo[d]oxazol-2-yl)-2,7-naphthyridin-3-yl)cyclopropanecarboxamide] | ≤ 500 | ≤ 100
25 | O=C(Nc1cc2c(-c3nc4ccccc4o3)cnc(O)c2cn1)C1CC1 [Example 371, N-(5-(benzo[d]oxazol-2-yl)-8-hydroxy-2,7-naphthyridin-3-yl)cyclopropanecarboxamide] | > 500 | ≤ 100
26 | CNc1ncc(-c2nc3cc(OC)ccc3o2)c2cc(Nc3ccccn3)ncc12 [Example 372, 4-(5-methoxybenzo[d]oxazol-2-yl)-N^1-methyl-N^6-(pyridin-2-yl)-2,7-naphthyridine-1,6-diamine] | ≤ 500 | ≤ 100
27 | CNc1ncc(-c2nc3cc(OC)ccc3o2)c2cc(Nc3ccc(F)cn3)ncc12 [Example 374, N^6-(5-fluoropyridin-2-y1)-4-(5-methoxybenzo[d]oxazol-2-yl)-N^1-methyl-2,7-naphthyridine-1,6-diamine] | > 500 | ≤ 100
28 | CNc1ncc(-c2nc3cc(OC)ccc3o2)c2cc(Nc3ccc(C(C)(C)O)cn3)ncc12 [Example 375, 2-(6-((5-(5-methoxybenzo[d]oxazol-2-y1)-8-(methylamino)-2,7-naphthyridin-3-yl)amino)pyridin-3-yl)propan-2-ol] | ≤ 500 | ≤ 100
29 | CNc1ncc(-c2nc3cc(OC)ccc3o2)c2cc(Nc3cc(C)n(C)n3)ncc12 [Example 376, N^6-(1,5-dimethyl-1H-pyrazol-3-yl)-4-(5-methoxybenzo[d]oxazol-2-yl)-N^1-methyl-2,7-naphthyridine-1,6-diamine] | ≤ 500 | ≤ 100
